Literature values as cited in patent publication US4803081A, “New pharmaceutical preparations with extended release” (Aktiebolaget Hassle, priority 1986, dated 1989).
Converted amounts (≈) assume the structure as drawn. Read-outs that look alike come from different tables or passages of the source.

Conditions: for solubility (in words): very low = less than 0.1 per cent by weight in water

solubility (in words) | solubility (in words) (listed as Felodipine) | solubility in water (water) | SMILES
very low solubility | practically insoluble | 0.5 µg/mL (≈ 1.3 µM) | CCOC(=O)C1=C(C)NC(C)=C(C(=O)OC)C1c1cccc(Cl)c1Cl (centres unmarked) [felodipine, 4-(2,3-dichlorophenyl)-1,4-dihydro-2,6-dimethyl-3,5-pyridinedicarboxylic acid ethyl methyl ester]
very low solubility |  |  | COC1=CC(=O)C[C@@H](C)[C@]12Oc1c(Cl)c(OC)cc(OC)c1C2=O [griseofulvin]

SMILES | solubility (in words) | solubility (in words) (listed as Felodipine) | solubility in water (water)
O=C1NC(=O)C(c2ccccc2)(c2ccccc2)N1 [phenytoin] | very low solubility |  | 
